Results: article PMC12827894, “Structure-guided design of picomolar-level macrocyclic TRPC5 channel inhibitors with antidepressant activity” (Acta Pharmaceutica Sinica. B, 2025)
pIC50: −log10 of the molar value.

Target: T1, TRPC4 (Homo sapiens, UniProt Q9UBN4)
T1 construct: expressed in transfected cells
Test: Whole-cell patch-clamp, TRPC4, 100 nmol/L EA
Format: cell-based
Settings: HEK293T
Text: Given that TRPC4 and TRPC5 are highly similar and often form heteromeric with TRPC1, we evaluated JDIC-127's activity on TRPC4, TRPC1/4, and TRPC1/5 using whole-cell patch-clamp recordings under agonist stimulation with 100 nmol/L EA in HEK293T cells. […].
For electrophysiological activity testing of compounds against TRPC4 and TRPC5, stably expressed TRPC5 or TRPC4 cells were used for whole-cell patch-clamp recordings, employing a HEKA EPC10 amplifier and […] software (https://www.heka.com/downloads/downloads_main.html#down_patchmaster). Prior to recording, cells were induced with 1 μg/mL tetracycline for 24 h. For TRPC1/4 or TRPC1/5 heteromers, plasmids TRPC1 and TRPC5 or TRPC1 and TRPC4 were co-transfected into HEK293T cells. After 48 to 72 h of transfection, testing was performed. A 1-s ramp protocol from −100 to +100 mV at 0.2 Hz was applied, as previously described. The extracellular solution consisted of 140 mmol/L NaCl, 1 mmol/L MgCl2, 2 mmol/L CaCl2, 10 mmol/L Hepes, 5 mmol/L KCl, and 10 mmol/L D-glucose, with pH adjusted to 7.4 using NaOH. […] The half-maximal inhibitory concentration (IC50) of drugs was determined by recording currents at a +100 mV pulse and analyzing current amplitudes at varying drug concentrations, with IC50 values calculated using the Hill equation. […]

T1 sequence (Q9UBN4 whole entry): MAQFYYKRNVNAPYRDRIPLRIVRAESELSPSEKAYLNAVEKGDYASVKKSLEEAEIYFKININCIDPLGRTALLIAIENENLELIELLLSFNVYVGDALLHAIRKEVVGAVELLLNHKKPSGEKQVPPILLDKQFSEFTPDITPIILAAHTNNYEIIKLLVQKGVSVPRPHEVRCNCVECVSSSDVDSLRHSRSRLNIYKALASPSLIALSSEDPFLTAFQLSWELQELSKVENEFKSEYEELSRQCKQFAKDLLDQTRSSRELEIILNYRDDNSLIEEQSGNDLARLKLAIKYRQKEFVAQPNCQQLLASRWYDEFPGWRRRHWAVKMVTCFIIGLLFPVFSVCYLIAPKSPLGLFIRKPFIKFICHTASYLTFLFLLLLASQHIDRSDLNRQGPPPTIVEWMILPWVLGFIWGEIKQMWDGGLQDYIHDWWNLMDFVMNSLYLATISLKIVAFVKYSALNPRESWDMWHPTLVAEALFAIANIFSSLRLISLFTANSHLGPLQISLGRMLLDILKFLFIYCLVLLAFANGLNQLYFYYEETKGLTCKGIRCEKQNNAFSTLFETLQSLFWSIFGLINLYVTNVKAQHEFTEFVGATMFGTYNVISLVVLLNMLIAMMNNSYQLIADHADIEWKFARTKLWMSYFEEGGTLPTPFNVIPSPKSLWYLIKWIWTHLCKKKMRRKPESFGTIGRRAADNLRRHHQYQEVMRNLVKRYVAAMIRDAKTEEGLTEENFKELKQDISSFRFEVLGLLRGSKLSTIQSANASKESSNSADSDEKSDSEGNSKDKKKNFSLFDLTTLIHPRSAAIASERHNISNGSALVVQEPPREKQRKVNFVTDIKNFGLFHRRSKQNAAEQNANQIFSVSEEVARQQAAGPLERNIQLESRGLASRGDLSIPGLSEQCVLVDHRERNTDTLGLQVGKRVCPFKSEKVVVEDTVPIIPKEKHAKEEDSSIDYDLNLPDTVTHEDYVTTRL

With `O=c1c2c3nc(n2Cc2ccc(Cl)cc2)Oc2ccc(F)c(c2)OCCCCCCn3c(=O)n1CCCO` [JDIC-127] as the compound, how does the pIC50 read?
Its pIC50 is 12.00.
